Measured values from US9743676B2, “Pesticidal compositions comprising a solid insecticide and an essential oil” (AirRx Antimicrobial Sciences Inc., priority 2015, dated 2017).
Read-outs that look alike come from different tables or passages of the source.

Experiments:
[1] = test system: nonresistant strain of bed bug; settings: for Residual Effect (% Knockdown & Mortality/hrs) 24: 24 hrs; for Residual Effect (% Knockdown & Mortality/hrs) 48: 48 hrs; for Residual Effect (% Knockdown & Mortality/hrs) 72: 72 hrs
Experimental: The compositions and individual components thereof were prepared to provide the appropriate rates of application for combinations of acetamiprid, chlorfenapyr, and rosemary oil, as well as acetamiprid, chlorfenapyr, and rosemary oil paired and alone. The insecticide formula(s) were aliquoted (100 μL) into a glass petri dish (100 mm). Filter paper was placed on top of the solution. Ten adult bed bugs were then placed on top of the filter paper and morbidity and moribundity (knockdown) and mortality was recorded at 5 minutes for each treatment combination and the control. After 2 hours, bed bugs were removed from the treated surface and placed in a holding chamber. Bed bug morbidity, moribund, and mortality was recorded every 24 hours for 7 days.
Dash indicates no knockdown or mortality during exposure.

[2] = test system: adult bed bugs resistant strain (UMC) colony; experiment: Contact lethal time of pyrethroids and rosemary oil on treated filter paper, Example 4; assay type: in vivo, bed bug; settings: rate 0.01 % by weight
Experimental: The control is 100 μL […]. Filter paper was then placed on top of the solution.

| Compound | 2 hour exposure (min) LT50 ([1]; rate 0.01 % by weight) [min] | 2 hour exposure (min) LT99 ([1]; rate 0.01 % by weight) [min] | Residual Effect (% Knockdown & Mortality/hrs) 24 ([1]; rate 0.01 % by weight) [%] | Residual Effect (% Knockdown & Mortality/hrs) 48 ([1]; rate 0.01 % by weight) [%] | Residual Effect (% Knockdown & Mortality/hrs) 72 ([1]; rate 0.01 % by weight) [%] | 2 hour exposure (min) LT50 ([1]; rate 0.1 % by weight) [min] | 2 hour exposure (min) LT99 ([1]; rate 0.1 % by weight) [min] | Residual Effect (% Knockdown & Mortality/hrs) 24 ([1]; rate 0.1 % by weight) [%] | Residual Effect (% Knockdown & Mortality/hrs) 48 ([1]; rate 0.1 % by weight) [%] | Residual Effect (% Knockdown & Mortality/hrs) 72 ([1]; rate 0.1 % by weight) [%] | 2 hour exposure (min) LT50 ([1]; rate 1.0 % by weight) [min] | 2 hour exposure (min) LT99 ([1]; rate 1.0 % by weight) [min] | Residual Effect (% Knockdown & Mortality/hrs) 24 ([1]; rate 1.0 % by weight) [%] | Residual Effect (% Knockdown & Mortality/hrs) 48 ([1]; rate 1.0 % by weight) [%] | Residual Effect (% Knockdown & Mortality/hrs) 72 ([1]; rate 1.0 % by weight) [%] | LT50 [2] [min] | LT95 [2] [min] |
| --- | --- | --- | --- | --- | --- | --- | --- | --- | --- | --- | --- | --- | --- | --- | --- | --- | --- |
| CC(=NC#N)N(C)Cc1ccc(Cl)nc1 [Acetamiprid, N-[(6-chloro-3-pyridyl)methyl]-N′-cyano-N-methyl-acetamidine] | 39.3 | 38038.1 | 10.0 | 20.0 | 20.0 | 22.4 | 12565.9 | 20.0 | 10.0 | 10.0 | 7.0 | 510.8 | 40.0 | 30.0 | 50.0 |  |  |
| CCOCn1c(-c2ccc(Cl)cc2)c(C#N)c(Br)c1C(F)(F)F [Chlorfenapyr, 4-Bromo-2-(4-chlorophenyl)-1-ethoxymethyl-5-trifluoromethyl-1H-pyrrole-3-carbonitrile] |  |  | 0.0 | 0.0 | 0.0 |  |  | 30.0 | 50.0 | 70.0 |  |  | 40.0 | 80.0 | 100.0 |  |  |
| CC1(C)C(C=C(Cl)Cl)C1C(=O)OCc1cccc(Oc2ccccc2)c1 (stereo not shown) [Permethrin, permethrin] |  |  |  |  |  |  |  |  |  |  |  |  |  |  |  | 20.78 | 490.348 |
| CC(C)=CC1C(C(=O)OCN2C(=O)C3=C(CCCC3)C2=O)C1(C)C (stereo not shown) [Tetramethrin, tetramethrin] |  |  |  |  |  |  |  |  |  |  |  |  |  |  |  | 14000 | 6.5e+06 |
